# Test results: PubChem BioAssay (NCI)
# Several values for one entry are separate records, joined by “and”; a condition that tells them apart may be missing. Equal values may be shown once.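 All cell lines were grown in 96-well plates and treated with compound for 48 hours. Here, GI50 denotes the concentration required for 50% inhibition of growth. At the TGI there is no net growth.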
# Experiments:
# Assay in all cases: NCI tumour cell line growth inhibition, 48 h
# A498 renal = system: A498 renal
# MOLT-4 leukemia = system: MOLT-4 leukemia
# NCI-H23 lung = system: NCI-H23 lung
# NCI-H522 lung = system: NCI-H522 lung
# OVCAR-5 ovarian = system: OVCAR-5 ovarian
# OVCAR-8 ovarian = system: OVCAR-8 ovarian
# SF-295 CNS = system: SF-295 CNS
# SK-MEL-28 melanoma = system: SK-MEL-28 melanoma
# SW-620 colon = system: SW-620 colon
# TK-10 renal = system: TK-10 renal
Compound,GI50 (A498 renal),TGI (A498 renal),GI50 (MOLT-4 leukemia),TGI (MOLT-4 leukemia),GI50 (NCI-H23 lung),TGI (NCI-H23 lung),GI50 (NCI-H522 lung),TGI (NCI-H522 lung),GI50 (OVCAR-5 ovarian),TGI (OVCAR-5 ovarian),GI50 (OVCAR-8 ovarian),TGI (OVCAR-8 ovarian),GI50 (SF-295 CNS),TGI (SF-295 CNS),GI50 (SK-MEL-28 melanoma),TGI (SK-MEL-28 melanoma),GI50 (SW-620 colon),TGI (SW-620 colon),GI50 (TK-10 renal),TGI (TK-10 renal)
O=C1c2cc(Cl)ccc2-c2c1c1ccc([N+](=O)[O-])cc1c(=O)n2CCCBr,24.2 µM,> 100 µM,1.84 µM,8.04 µM,8.27 µM,> 100 µM,5.02 µM,43.4 µM,> 100 µM,> 100 µM,8.35 µM,> 100 µM,2.63 µM,> 100 µM,33.5 µM,> 100 µM,3.78 µM,> 100 µM,61.9 µM,> 100 µM
Cc1cc2c(cc1Cl)SC1=NN(C)C(N(C)C)N1S2(=O)=O (stereo unspecified),63.4 µM,> 100 µM,> 100 µM,> 100 µM,> 100 µM,> 100 µM,> 100 µM,> 100 µM,> 100 µM,> 100 µM,> 100 µM,> 100 µM,> 100 µM,> 100 µM,> 100 µM,> 100 µM,> 100 µM,> 100 µM,> 100 µM,> 100 µM
CC(CCC(=O)O)C(=O)O (stereo unspecified),,> 100 µM,,> 100 µM,,> 100 µM,,> 100 µM,,> 100 µM,,> 100 µM,,> 100 µM,,> 100 µM,,> 100 µM,,> 100 µM
CCn1c2ccc(O)cc2c2c(C)c3c[n+](C)ccc3c(C)c21,3.71 µM,59.4 µM,2.06 µM,95.1 µM,1.44 µM,25.8 µM,1.46 µM,10.4 µM,23.8 µM,> 100 µM,1.47 µM,41.4 µM,0.748 µM,31.4 µM,2.83 µM,16 µM,3.85 µM,> 100 µM,24.3 µM,> 100 µM
CC[O-].CC[O-].O=S(=O)([O-])c1ccc([O-])c2ncccc12.O=S(=O)([O-])c1ccc([O-])c2ncccc12.[Ti+4],> 100 µM,> 100 µM,37.2 µM,> 100 µM,> 100 µM,> 100 µM,32.8 µM,> 100 µM,33.5 µM,> 100 µM,74.5 µM,> 100 µM,> 100 µM,> 100 µM,> 100 µM,> 100 µM,> 100 µM,> 100 µM,> 100 µM,> 100 µM
COc1cc2ncnc(Nc3ccc(F)c(Cl)c3)c2cc1NC(=O)/C=C/CN1CCCCC1,0.812 µM and 0.556 µM,4.04 µM and 3.71 µM,1.41 µM and 1.59 µM,4.97 µM and 7.26 µM,2.65 µM and 2.54 µM,7.81 µM and > 8.79 µM,0.0296 µM and 0.00694 µM,1.64 µM and 1.89 µM,1.19 µM and 1.17 µM,8.45 µM and > 8.15 µM,1.28 µM and 1.64 µM,5.35 µM and > 6.21 µM,1.78 µM and 2.44 µM,4.03 µM and > 7.08 µM,1.79 µM and 1.65 µM,3.36 µM and 3.14 µM,1.84 µM and 1.64 µM,4.42 µM and 3.54 µM,< 0.01 µM and 0.00151 µM,1.68 µM and 2.3 µM
Cn1c2c(c3ccc(Cl)c(Cl)c31)C(C#N)C1(CCNCC1)NC2=O (stereo unspecified),1.24 µM,2.95 µM,1.23 µM,2.7 µM,2.72 µM,9.22 µM,1.55 µM,3.42 µM,1.49 µM,4.68 µM,2.83 µM,8.85 µM,2.46 µM,8.1 µM,0.841 µM,2.37 µM,1.65 µM,3.26 µM,1.23 µM,3.46 µM
Cc1sc2nc3c4ccccc4c(NCCCN(C)C)nn3c(=O)c2c1C,4.49 µM,20.2 µM,0.782 µM,3.38 µM,8.45 µM,23 µM,12.4 µM,28.8 µM,14.2 µM,28.5 µM,11 µM,27.9 µM,8.25 µM,26.5 µM,1.73 µM,3.21 µM,1.67 µM,4.55 µM,13.6 µM,28.9 µM
O=c1cccc(C2CC(CO)C3CCCCN3C2)[nH]1 (stereo unspecified),,> 100 µM,,> 100 µM,,> 100 µM,,> 100 µM,,> 100 µM,,> 100 µM,,> 100 µM,,> 100 µM,,> 100 µM,,> 100 µM
CCN(CC)C(=S)SC,,> 100 µM,,> 100 µM,,> 100 µM,,> 100 µM,,> 100 µM,,> 100 µM,,> 100 µM,,> 100 µM,,> 100 µM,,> 100 µM
C/C=C1\NC(=O)[C@H]2CSSCCC=C[C@H](CC(=O)N[C@H](C(C)C)C(=O)N2)OC(=O)[C@H](C(C)C)NC1=O,< 0.01 µM,< 0.01 µM and 0.000402 µM,< 0.01 µM,,< 0.01 µM,,< 0.01 µM and 0.000105 µM,< 0.01 µM and 0.000166 µM,< 0.01 µM and 0.000261 µM,,< 0.01 µM,0.0668 µM and 0.072 µM and 0.154 µM,< 0.01 µM,< 0.01 µM and 0.013 µM,< 0.01 µM,< 0.01 µM and 0.0175 µM and < 0.0122 µM,< 0.01 µM,< 0.01 µM and 0.0195 µM and < 0.0161 µM,< 0.01 µM,
COc1cc(C(=O)Nc2cc3c(cc2Oc2cc(C)cc(C)c2)C(=O)N(C)[C@@H](CC(=O)N(C)O)C(=O)N3)c(Br)c(OC)c1OC,< 0.00333 µM,0.00573 µM,< 0.00333 µM,< 0.00333 µM,< 0.00333 µM,0.00543 µM,< 0.00333 µM,< 0.00333 µM,< 0.00333 µM,0.00751 µM,< 0.00333 µM,0.0181 µM,< 0.00333 µM,0.00898 µM,< 0.00333 µM,< 0.00333 µM,< 0.00333 µM,0.0149 µM,0.00526 µM,0.0264 µM
CN(C)/N=C(/c1nc2ccc(Cl)cc2[nH]c1=O)C(O)c1ccc(C(O)/C(=N\N(C)C)c2nc3ccc(Cl)cc3[nH]c2=O)cc1 (stereo unspecified),,> 100 µM,,> 100 µM,,> 100 µM,,> 100 µM,,> 100 µM,,> 100 µM,,> 100 µM,,> 100 µM,,> 100 µM,,> 100 µM
COC(=O)C(CC(=O)Nc1ccc(C)cc1)C(=O)C(=O)Nc1ccccc1C(C)C (stereo unspecified),,> 100 µM,,> 100 µM,,> 100 µM,,> 100 µM,,> 100 µM,,> 100 µM,,> 100 µM,,> 100 µM,,41.7 µM,,> 100 µM
